Results published in patent US20240238422A1 (Osprey Biopharmaceuticals, Inc., priority 2021, published 2024).
“Also recorded” adds a separate entry of the source.

Tests used:
[1] = test system: C57BL/6 mice; experiment: Anti-drug antibody (serum IgG titer) response to adalimumab and conjugates in mice; assay type: in vivo, mouse
Protocol: To evaluate the production of antibodies specific to adalimumab and/or adalimumab-Siglec Ligand conjugates, C57BL/6 mice were immunized through intravenous injection with adalimumab or Siglec Ligand-conjugated adalimumab. On study day −1, animals were randomized into treatment groups based on body weight. On study day 0, animals were bled for baseline serum and then injected IV with adalimumab or the adalimumab-Siglec Ligand conjugates. The individual antigens were prepared by making a 0.8 mg/ml antigen solution in sterile buffered saline. Animals were then injected with 0.1 ml (^˜4 ml/kg) of the 0.8 mg/ml antigen via the tail vein. The total dose based on a 20 g mouse would be 4 mg/kg. Animals were bled via the retro-orbital sinus weekly throughout the study under inhaled isoflurane anesthesia. On study day, 28 animals were anesthetized with inhaled isoflurane anesthesia and then bled via cardiac puncture and then sacrificed by cervical dislocation. […]
ADA assays were performed on 96-well assay plates (Nunc Plates, Black 96-Well Immuno Plates, Thermo Scientific, 437111) coated with antigen, as follows. […] The excitation and emission settings for the QuantaBlu Fluorogenic Peroxide Substrates are 325 nm and 420 nm and the relative florescence units were measured using a SpectraMax plate reader. […] Titers were determined by the dilution of serum that gives a 2× OD above background. […]

[2] = target: Human TNFα (Homo sapiens, UniProt P01375); experiment: TNFα - Adalimumab/Adalimumab-Siglec Ligand Conjugate SPR Binding Assays; conditions: TNFα analyte, test article on Protein A chip, 1:1 binding model
Protocol: Binding experiments of Adalimumab Conjugates were performed on a Biacore 8K+ using a Cytiva Protein A Chip Series S (Cat #29127555). Briefly, conjugates were diluted in running buffer (HBS-EP+) and scouted for a concentration yielding about 30 RU of response after 20 seconds of injection at 30 μL/min on the active surface (flow cell 2). Human TNFα was serially diluted in running buffer 1:1 from 100 nM to 0.1953 nM and then injected across both the reference (flow cell 1) and active surface (flow cell 2) for 120 seconds at 30 μL/min and allowed to dissociate for 600 s. […] Sensorgrams were fitted to a 1:1 binding model in Biacore Insight Evaluation Software Version 3.0.11.15423.

[3] = test system: C57BL/6 mice; experiment: Serum IgG response to hen egg white lysozyme (HEL) in mice; assay type: in vivo, mouse; conditions: Example 20: 4 weekly 200 μg i.v. doses (days 0, 7, 14, and 21), day 27
Protocol: On study day −1, animals were randomized into treatment groups based on body weight. On study day 0, animals were bled for baseline serum and then injected IV with adalimumab, adalimumab-Siglec Ligand conjugate, or PBS vehicle. The individual adalimumab-based antigens were prepared by making a 0.8 mg/ml antigen solution in sterile buffered saline. Animals were then injected with 0.1 ml (^˜4 ml/kg) of the 0.8 mg/ml antigen via the tail vein. The total dose based on a 20 g mouse would be 4 mg/kg. Mice were subsequently administered 200 μg HEL on days 7, 14, and 21. Whole blood was collected into Microvette EDTA capillary collection tubes (Sarstedt Inc) and then further processed following the manufacturer's instructions for serum collection. Samples were stored at −80 C until analysis was performed.
ADA assays were performed on 96-well assay plates (Nunc Plates, Black 96-Well Immuno Plates, Thermo Scientific, 437111) coated with antigen as follows. […] The excitation and emission settings for the QuantaBlu Fluorogenic Peroxide Substrates are 325 nm and 420 nm and the relative florescence units were measured using a SpectraMax plate reader. […] Titers were determined by the dilution of serum that gives a 2× OD above background.
On study day −1, animals were randomized into treatment groups based on body weight. […] Serum IgG levels against HEL/HEL conjugate were measured at day 27. […]

Sequence of Human TNFα (P01375 77-233 limits assumed): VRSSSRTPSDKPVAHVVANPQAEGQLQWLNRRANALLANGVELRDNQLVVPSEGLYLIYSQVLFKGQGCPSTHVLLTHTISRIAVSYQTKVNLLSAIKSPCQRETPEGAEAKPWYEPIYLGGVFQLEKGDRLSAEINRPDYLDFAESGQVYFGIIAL

Row | Kd [2] [nM] | Rmax (RU) [2] [RU] | ka [2] [M⁻¹ s⁻¹] | kd [2] [s⁻¹] | Substance | anti-drug antibody response (mouse serum IgG titer against adalimumab/adalimumab conjugates) ([1]; Example 14: single 4 mg/kg i.v. dose, days 14, 21, and 28, GAL and PEG linkers, listed as adalimumab hIgG1, 4 mg/kg) | IgG response against adalimumab/adalimumab conjugate ([1]; Example 19: 4 mg/kg day 0, then weekly 200 μg HEL, day 28) | IgG response to HEL/HEL conjugate (immunogenicity) [3]
1 | 1.46 | 10.6 | 245000 | 0.000357 | Adalimumab | highly immunogenic in mice; also recorded: high mouse IgG serum titers | strong IgG response | –
2 | – | – | – | – | HEL: hen egg white lysozyme (Sigma, L4919-1G), standard immunogen [reference compound] | – | – | vigorous IgG responses to HEL
3 | – | – | – | – | Siglec Ligand-HEL conjugates: hen egg white lysozyme conjugated with monovalent BPC-Neu5Gc PEG ligand-linker, LDR of 1.6 | – | – | completely suppressed for immunogenicity
